This is an account of results in ChEMBL document CHEMBL4321788, “Rational Design of Multitarget-Directed Ligands: Strategies and Emerging Paradigms” (J Med Chem, 2019).

The structures appear in SMILES notation.

One experiment addresses T1, Substance-K receptor (Homo sapiens, UniProt P21452).
T1 sequence (P21452 whole entry): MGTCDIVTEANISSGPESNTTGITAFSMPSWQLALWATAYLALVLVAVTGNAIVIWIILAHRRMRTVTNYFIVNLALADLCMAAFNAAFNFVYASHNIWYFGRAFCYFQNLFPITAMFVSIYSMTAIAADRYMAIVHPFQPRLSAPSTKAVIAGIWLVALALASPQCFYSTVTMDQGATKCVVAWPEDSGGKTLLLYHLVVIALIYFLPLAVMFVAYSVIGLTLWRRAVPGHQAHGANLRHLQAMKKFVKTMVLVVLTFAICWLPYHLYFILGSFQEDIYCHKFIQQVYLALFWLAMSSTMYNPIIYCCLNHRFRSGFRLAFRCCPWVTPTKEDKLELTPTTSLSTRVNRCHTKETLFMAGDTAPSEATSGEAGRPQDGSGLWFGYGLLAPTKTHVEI
The experiment in a line: Displacement of [3H]NKA from human NK2 receptor expressed in CHO cells membranes. In kind it is cell membranes.

The target in the next experiment is Substance-P receptor (Homo sapiens, UniProt P25103). Kind of experiment: Displacement of [3H]Sar SP from human NK1 receptor expressed in CHO cells membranes. It is filed as cell membranes. A general note: Displacement assays read how much labelled ligand stays bound in the presence of the test substance.
The target of another experiment is T2, Neuromedin-K receptor (Homo sapiens, UniProt P29371).
T2 sequence (P29371 whole entry): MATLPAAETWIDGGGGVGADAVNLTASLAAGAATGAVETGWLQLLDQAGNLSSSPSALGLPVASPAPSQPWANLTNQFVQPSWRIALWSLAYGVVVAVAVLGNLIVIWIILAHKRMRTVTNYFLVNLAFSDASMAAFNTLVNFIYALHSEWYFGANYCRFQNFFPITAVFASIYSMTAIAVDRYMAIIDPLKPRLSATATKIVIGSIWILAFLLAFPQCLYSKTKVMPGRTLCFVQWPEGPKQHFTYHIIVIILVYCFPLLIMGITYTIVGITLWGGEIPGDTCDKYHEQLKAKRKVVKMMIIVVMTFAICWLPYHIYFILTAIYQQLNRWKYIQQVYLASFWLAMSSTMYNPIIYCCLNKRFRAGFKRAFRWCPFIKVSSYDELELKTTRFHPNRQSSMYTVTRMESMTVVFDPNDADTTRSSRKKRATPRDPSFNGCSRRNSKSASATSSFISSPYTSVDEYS
The experiment in a line: Displacement of [125I][MePhe]NKB from human NK3 receptor expressed in CHO cells membranes. In kind it is cell membranes.

The species named for a further experiment is Homo sapiens. Kind of experiment: Antioxidant activity in human M17 cell lysate assessed as trolox equivalents of ABTS radical scavenging activity incubated up to 10 mins. In kind it is functional, subcellular.
Experiment [1] addresses Sodium-dependent serotonin transporter (Rattus norvegicus, UniProt P31652). Kind of experiment: Inhibition of rat synaptosome SERT.
The next experiment addresses Lipoxygenase (Glycine max, UniProt Q39829). Kind of experiment: Inhibition of soya bean LOX assessed as reduction in formation of 13-hydroperoxylinoleic acid using sodium linoleate as substrate.
The test system of the next experiment is Rattus norvegicus. Kind of experiment: Antinociceptive activity in Wistar rat model of acetic-acid induced nociception pain assessed as reduction in writhes by measuring reduction in hind limb extension at 0.01 mmol/0.1kg, ip pretreated for 30 min followed by acetic-acid treatment and measured every 5 mins for 30 mins relative to control. Also noted: scale not given: the % may be the effect or the level left. It is filed as functional.

The target of experiment [2] is Histamine H2 receptor (Cavia porcellus) (UniProt P47747). Kind of experiment: Binding affinity to histamine H2 receptor in guinea pig right atrium.
In experiment [3] the target is Histamine H1 receptor (Cavia porcellus) (UniProt P31389). Kind of experiment: Binding affinity to histamine H1 receptor in guinea pig ileum incubated up to 20 mins. It is filed as tissue-based.
Experiment [4] is described as follows: Inhibition of ROS generation in human MC65 cells assessed as reduction in tetracycline removal-induced ROS level incubated for 48 hrs by DCFH-DA staining based flow cytometric analysis. In kind it is functional, cell-based. The note with it: MC65, 48 h. In general terms: A flow cytometer gives signals particle by particle.
A short description of experiment [5]: Neuroprotective activity against tetracycline removal-induced cytotoxicity in human MC65 cells assessed as increase in cell viability incubated for 72 hrs by MTT assay. In kind it is functional, cell-based. The following applies: MC65, 72 h. (Formazan colour is commonly taken as a measure of viable cells.)
Experiment [6] deals with Amyloid-beta precursor protein (Homo sapiens, UniProt P05067). Kind of experiment: Inhibition of self-induced aggregation of amyloid beta (1 to 42) (unknown origin) incubated for 24 hrs by TEM analysis.
The next experiment addresses Histamine H3 receptor (Homo sapiens, UniProt Q9Y5N1). The experiment in a line: Antagonist activity at human histamine H3 receptor stably expressed in HEK293 cells assessed as cAMP accumulation incubated for 60 mins by Eu-cAMP tracer based TR-FRET assay. In kind it is functional, cell-based.
The target in the next experiment is T3, Acetylcholinesterase (Mus musculus, UniProt P21836).
T3 sequence (P21836 whole entry): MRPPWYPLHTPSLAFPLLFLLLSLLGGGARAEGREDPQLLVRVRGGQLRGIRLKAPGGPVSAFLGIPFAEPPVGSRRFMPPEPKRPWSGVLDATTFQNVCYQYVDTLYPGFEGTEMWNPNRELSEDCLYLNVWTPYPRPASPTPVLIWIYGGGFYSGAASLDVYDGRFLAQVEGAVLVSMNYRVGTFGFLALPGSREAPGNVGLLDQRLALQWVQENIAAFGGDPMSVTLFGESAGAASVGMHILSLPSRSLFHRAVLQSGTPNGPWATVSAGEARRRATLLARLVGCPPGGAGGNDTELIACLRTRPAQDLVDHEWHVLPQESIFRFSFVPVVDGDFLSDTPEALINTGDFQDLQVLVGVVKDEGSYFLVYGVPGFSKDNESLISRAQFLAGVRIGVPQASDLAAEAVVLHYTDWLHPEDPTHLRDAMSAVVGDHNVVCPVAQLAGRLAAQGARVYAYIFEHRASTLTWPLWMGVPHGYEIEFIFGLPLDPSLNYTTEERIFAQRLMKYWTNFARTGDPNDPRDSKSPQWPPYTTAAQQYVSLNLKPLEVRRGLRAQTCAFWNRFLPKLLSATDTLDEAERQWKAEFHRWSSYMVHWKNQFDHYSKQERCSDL
The experiment in a line: Inhibition of mouse brain AChE.

Histamine H2 receptor (Cavia porcellus), sequence (P47747 whole entry): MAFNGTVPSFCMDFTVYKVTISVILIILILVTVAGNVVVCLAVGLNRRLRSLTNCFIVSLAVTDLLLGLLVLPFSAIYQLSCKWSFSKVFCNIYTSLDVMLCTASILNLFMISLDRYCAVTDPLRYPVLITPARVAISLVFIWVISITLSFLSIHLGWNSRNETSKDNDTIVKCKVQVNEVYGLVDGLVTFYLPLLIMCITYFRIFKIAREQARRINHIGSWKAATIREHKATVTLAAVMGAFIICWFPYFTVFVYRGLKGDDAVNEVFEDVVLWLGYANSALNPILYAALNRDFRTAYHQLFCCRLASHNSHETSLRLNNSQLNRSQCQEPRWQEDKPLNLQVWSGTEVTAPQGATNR
Sodium-dependent serotonin transporter, sequence (P31652 whole entry): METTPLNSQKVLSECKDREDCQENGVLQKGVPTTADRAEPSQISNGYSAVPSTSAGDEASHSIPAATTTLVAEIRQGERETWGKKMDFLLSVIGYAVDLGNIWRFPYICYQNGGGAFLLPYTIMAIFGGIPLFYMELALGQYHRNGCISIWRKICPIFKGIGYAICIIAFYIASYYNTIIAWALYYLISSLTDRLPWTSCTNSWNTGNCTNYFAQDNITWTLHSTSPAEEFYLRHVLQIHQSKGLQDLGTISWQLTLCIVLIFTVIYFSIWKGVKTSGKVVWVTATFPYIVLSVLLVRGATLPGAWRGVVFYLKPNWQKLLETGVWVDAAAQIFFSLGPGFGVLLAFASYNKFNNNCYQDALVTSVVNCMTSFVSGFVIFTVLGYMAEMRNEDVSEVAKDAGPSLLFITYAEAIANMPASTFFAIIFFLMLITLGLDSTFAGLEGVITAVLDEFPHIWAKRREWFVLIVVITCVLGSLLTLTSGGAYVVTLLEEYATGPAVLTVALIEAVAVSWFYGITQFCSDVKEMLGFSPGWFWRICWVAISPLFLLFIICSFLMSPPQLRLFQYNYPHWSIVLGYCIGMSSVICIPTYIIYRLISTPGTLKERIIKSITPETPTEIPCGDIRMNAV
Histamine H1 receptor (Cavia porcellus), sequence (P31389 whole entry): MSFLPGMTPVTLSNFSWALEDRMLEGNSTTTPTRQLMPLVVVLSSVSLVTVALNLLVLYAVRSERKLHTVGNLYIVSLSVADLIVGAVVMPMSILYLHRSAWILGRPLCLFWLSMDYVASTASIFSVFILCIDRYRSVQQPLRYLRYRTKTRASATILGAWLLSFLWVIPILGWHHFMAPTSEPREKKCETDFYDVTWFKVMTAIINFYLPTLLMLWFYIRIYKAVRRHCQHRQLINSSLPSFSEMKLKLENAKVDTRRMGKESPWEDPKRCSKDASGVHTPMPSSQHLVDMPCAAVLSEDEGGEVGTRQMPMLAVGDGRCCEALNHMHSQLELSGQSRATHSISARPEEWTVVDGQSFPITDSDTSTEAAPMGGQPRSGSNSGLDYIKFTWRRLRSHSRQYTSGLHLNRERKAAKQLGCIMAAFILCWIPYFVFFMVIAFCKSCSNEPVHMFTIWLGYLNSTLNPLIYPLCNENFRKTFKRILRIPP
Amyloid-beta precursor protein, sequence (P05067 whole entry): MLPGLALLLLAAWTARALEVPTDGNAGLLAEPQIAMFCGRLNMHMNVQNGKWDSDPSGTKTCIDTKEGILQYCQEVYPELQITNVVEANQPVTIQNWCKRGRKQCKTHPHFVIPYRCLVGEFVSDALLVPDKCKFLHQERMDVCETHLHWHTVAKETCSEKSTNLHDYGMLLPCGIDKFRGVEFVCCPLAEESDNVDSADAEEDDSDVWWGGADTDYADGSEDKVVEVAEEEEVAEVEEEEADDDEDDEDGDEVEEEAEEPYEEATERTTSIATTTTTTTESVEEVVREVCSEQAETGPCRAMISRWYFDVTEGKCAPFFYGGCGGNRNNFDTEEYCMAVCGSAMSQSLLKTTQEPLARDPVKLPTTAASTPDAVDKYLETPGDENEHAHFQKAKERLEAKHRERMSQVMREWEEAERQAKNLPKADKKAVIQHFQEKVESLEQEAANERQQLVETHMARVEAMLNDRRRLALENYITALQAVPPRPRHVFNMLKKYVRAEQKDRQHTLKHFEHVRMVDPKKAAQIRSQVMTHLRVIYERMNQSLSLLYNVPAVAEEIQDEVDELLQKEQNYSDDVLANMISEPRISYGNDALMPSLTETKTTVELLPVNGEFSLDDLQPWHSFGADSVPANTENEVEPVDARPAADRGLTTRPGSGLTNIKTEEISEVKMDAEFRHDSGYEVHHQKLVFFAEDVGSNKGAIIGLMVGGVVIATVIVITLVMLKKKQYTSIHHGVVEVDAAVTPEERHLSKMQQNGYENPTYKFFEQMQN
Substance-P receptor, sequence (P25103 whole entry): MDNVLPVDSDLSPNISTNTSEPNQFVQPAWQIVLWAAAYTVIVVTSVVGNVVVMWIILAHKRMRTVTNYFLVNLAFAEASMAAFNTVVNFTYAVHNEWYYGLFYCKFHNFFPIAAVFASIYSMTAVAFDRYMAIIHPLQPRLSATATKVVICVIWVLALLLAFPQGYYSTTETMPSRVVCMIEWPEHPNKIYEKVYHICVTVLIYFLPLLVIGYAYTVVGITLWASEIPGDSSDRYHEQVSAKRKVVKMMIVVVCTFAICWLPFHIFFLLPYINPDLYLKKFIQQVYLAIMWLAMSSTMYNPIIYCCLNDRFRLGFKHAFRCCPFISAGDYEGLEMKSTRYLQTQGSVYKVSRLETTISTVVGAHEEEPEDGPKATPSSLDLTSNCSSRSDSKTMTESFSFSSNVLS
Histamine H3 receptor, sequence (Q9Y5N1 whole entry): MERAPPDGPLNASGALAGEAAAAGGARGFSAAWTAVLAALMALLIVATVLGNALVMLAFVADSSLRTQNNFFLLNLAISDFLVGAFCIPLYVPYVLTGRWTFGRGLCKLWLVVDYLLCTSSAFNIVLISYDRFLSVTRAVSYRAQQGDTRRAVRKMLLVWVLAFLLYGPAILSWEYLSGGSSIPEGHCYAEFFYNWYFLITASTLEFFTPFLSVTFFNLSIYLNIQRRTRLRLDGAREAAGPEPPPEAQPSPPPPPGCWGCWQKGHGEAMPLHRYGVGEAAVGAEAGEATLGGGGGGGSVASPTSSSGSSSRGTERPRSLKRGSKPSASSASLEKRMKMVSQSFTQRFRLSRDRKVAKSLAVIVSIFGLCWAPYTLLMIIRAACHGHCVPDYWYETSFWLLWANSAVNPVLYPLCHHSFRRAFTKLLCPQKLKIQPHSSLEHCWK

Usually Ki stands for a dissociation constant, usually derived from enzyme kinetics or from competition with a known ligand. With `CNC(=O)C[C@H]1CCCN(C2CCN(CC[C@@H](/C(CN(C)C(=O)c3cc(Cl)cc(Cl)c3)=N/OC)c3ccc(Cl)c(Cl)c3)CC2)C1`, the values for the Ki at Substance-K receptor, on Substance-P receptor and at Neuromedin-K receptor were 0.4 nM, 1.3 nM and 0.3 nM, respectively.
Regarding `CN(C)c1ccc(O)c(CNc2cccc3ccc(CO)nc23)c1`, the Activity in the experiment filed under Homo sapiens was 1.41.
The IC50 is the concentration needed to halve the response being measured. In experiment [1], `CCN(C)C(=O)Oc1cccc([C@H](C)N(C)C)c1` [RIVASTIGMINE] returned an IC50 of more than 1000 nM.
Consider `O=C(O)/C=C/c1cccc(Oc2ccccc2)c1`, for which the IC50 at Lipoxygenase came out at 89000 nM.
`CC(=O)Nc1ccc(O)cc1` [ACETAMINOPHEN]: in the experiment with Rattus norvegicus, the Activity came out at 66%.
As a reminder, the pKb is −log10 of the Kb, conventionally taken in molar units. As for `COc1ccc(CN(CCN(C)CCCCCCN/C(=N/C#N)NCCCOc2cccc(CN3CCCCC3)c2)c2ccccn2)cc1`, the pKb in experiment [2] stood at 6.43; in experiment [3], 8.42.
`CC(=O)Nc1cccc(OC(=O)/C=C/c2cccc(Oc3ccccc3)c2)c1`: in the experiment on Rattus norvegicus, the Activity was 91 - 98.1%. For the same molecule, the IC50 on Lipoxygenase was determined as 340 nM.
In general, EC50 refers to the midpoint of the concentration-response curve. On to `COc1ccc2[nH]cc(CCNC(=O)CC(=O)CCc3ccc(O)cc3)c2c1`, for which the IC50 in [4] turned out to be 68 nM. In [5], the EC50 turned out to be 27.6 nM.
In [2], `CN(CCCNC(=O)NCCCOc1ccc(CN2CCCCC2)cc1)CCC(c1ccc(F)cc1)c1ccccn1` (stereo not drawn) registered a pKb of 6.68.
As to `CCN(CC)CCCOc1ccc(-n2ccc(=O)c(O)c2C)cc1`, the IC50 in experiment [6] was determined as 17200 nM; on Histamine H3 receptor it was 12.8 nM.
In the case of `CNCCC(Oc1ccc(C(F)(F)F)cc1)c1ccccc1` (stereo not drawn) [FLUOXETINE], the IC50 against Acetylcholinesterase was more than 10000 nM.
As for `Cc1c(C)c2c(c(C)c1O)CCC(C)(C(=O)O)O2` (stereo not drawn), the Activity in the experiment filed under Homo sapiens was determined as 1.
